Source: the supplement of paper PMC10307832

Key:
Assay in all cases: relative viability (nuclei count vs DMSO), 5 days (fraction); higher = more cells survive
Axitinib + Crizotinib = compound: CNC(=O)c1ccccc1Sc1ccc2c(/C=C/c3ccccn3)n[nH]c2c1 [Axitinib] + C[C@@H](Oc1cc(-c2cnn(C3CCNCC3)c2)cnc1N)c1c(Cl)ccc(F)c1Cl [Crizotinib] (partner 1 µM)
Summary of the method: (§1)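 Relative viability is defined as nuclei in treated wells over nuclei in vehicle wells. Duplicate plates were run and medians reported. Lung cancer cell lines in 1536-well plates were dosed by pin tool one day after seeding, with one drug or with a fixed anchor-drug dose plus five library-drug doses (not always all listed) in √10 steps, and nuclei were counted after 5 days.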

[1] = compound: CC1=CC=C(C=C1)C(=O)CN2C3=C(CCCC3)SC2=N [Pifithrin_alpha] + N=C(N)NC(=N)NCCc1ccccc1 [Phenformin] (partner 250 µM)
Summary of the method: as §1

Axitinib + Luminespib = compound: CNC(=O)c1ccccc1Sc1ccc2c(/C=C/c3ccccn3)n[nH]c2c1 [Axitinib] + CCNC(=O)c1noc(-c2cc(C(C)C)c(O)cc2O)c1-c1ccc(CN2CCOCC2)cc1 [Luminespib] (partner 0.01 µM)
Summary of the method: as §1

Bemcentinib + Lapatinib = compound: Nc1nc(Nc2ccc3c(c2)CC[C@@H](N2CCCC2)CC3)nn1-c1cc2c(nn1)-c1ccccc1CCC2 [Bemcentinib] + CS(=O)(=O)CCNCc1ccc(-c2ccc3ncnc(Nc4ccc(OCc5cccc(F)c5)c(Cl)c4)c3c2)o1 [Lapatinib] (partner 2 µM)
Summary of the method: as §1

Cell Line	relative viability (Axitinib + Crizotinib; first compound 0.005 µM)	relative viability (Axitinib + Crizotinib; first compound 0.01581 µM)	relative viability (Axitinib + Crizotinib; first compound 0.05 µM)	relative viability (Axitinib + Crizotinib; first compound 0.1581 µM)	relative viability (Axitinib + Crizotinib; first compound 0.5 µM)	relative viability ([1]; first compound 1 µM)	relative viability ([1]; first compound 3.162 µM)	relative viability ([1]; first compound 10 µM)	relative viability ([1]; first compound 100 µM)	relative viability (Axitinib + Luminespib; first compound 0.005 µM)	relative viability (Axitinib + Luminespib; first compound 0.01581 µM)	relative viability (Axitinib + Luminespib; first compound 0.05 µM)	relative viability (Axitinib + Luminespib; first compound 0.1581 µM)	relative viability (Axitinib + Luminespib; first compound 0.5 µM)	relative viability (Bemcentinib + Lapatinib; first compound 0.04 µM)	relative viability (Bemcentinib + Lapatinib; first compound 0.1265 µM)	relative viability (Bemcentinib + Lapatinib; first compound 0.4 µM)	relative viability (Bemcentinib + Lapatinib; first compound 1.265 µM)	relative viability (Bemcentinib + Lapatinib; first compound 4 µM)	relative viability ([1]; first compound 31.62 µM)
NCI-H3122	0.205	0.276	0.274	0.314	0.267	0.376	0.356	0.327	0.283	0.0794	0.103	0.092	0.0739	0.0873	0.818	1.03	1.03	1.02	1.03	
PC-3 [JPC-3]	1.04		0.943	0.95	1.11	0.497	0.482	0.409	0.488	0.663	0.653	0.712	0.739	0.779	0.455	0.495	0.421	0.425	0.471	0.47
PC-14	0.954	0.959	0.849	0.937	0.984	0.536	0.567	0.525	0.413	0.295		0.171	0.141	0.164	0.336	0.372	0.339	0.3	0.284	0.406
RERF-LC-KJ	0.801	0.856	0.862	0.771	0.823	0.454	0.402	0.368	0.263	1.23	1.2	1.17	1.21	1.42	0.848	1.02	1.15	0.919	0.885	0.316
SK-LU-1	0.999	1.12	1.11	1.02	1.1	0.511	0.624	0.49	0.625	0.224	0.21	0.188	0.201	0.238	0.806	0.888	0.865	0.964	0.904	
SK-MES-1	1.06	0.974	1.07	1.02	1.11	0.571	0.67	0.659	0.571	0.774	0.781	0.746	0.766	0.825	0.437	0.447	0.431	0.482	0.511	0.474
SW 1573	0.745	0.844	0.905	0.917	0.913	0.357	0.39	0.436	0.346	0.325	0.253	0.424	0.586	0.13	0.976	1.03	1.18	0.961	1.09	0.37
UMC-11	0.556	0.59	0.59	0.584	0.482	0.312	0.337	0.322	0.303	1.01	1.03	1.07	1.04	1.14	0.88	1.16	1.06	0.868	0.975	0.287
